Measured values from patent US12384753B2, “17-beta-hydroxysteroid dehydrogenase type 13 inhibitors and methods of use thereof” (Enanta Pharmaceuticals, Inc., priority 2021, dated 2025).

Target: Recombinant human HSD17B13 (Homo sapiens (Human), UniProt Q7Z5P4)
Assay: HSD17B13 rapid-fire mass spectrometry assay (RF/MS assay)
Type: biochemical
Settings: inhibition of HSD17B13; LTB4 10 μM, NAD+ 0.5 mM, RT 3 h; IC50 ranges A-E
How it was run: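 Sf9-expressed human HSD17B13 (80 nM) with 10 μM LTB4 and 0.5 mM NAD+, incubated with compound (0–100 μM) for 3 h at RT in Tris pH 7.5/BSA/Tween-20. After formic acid quench, LTB4 conversion to 12-oxo-LTB4 measured by RapidFire MS/MS. IC50 from normalised residual activity, duplicates.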

Recombinant human HSD17B13, sequence (Q7Z5P4 20-300): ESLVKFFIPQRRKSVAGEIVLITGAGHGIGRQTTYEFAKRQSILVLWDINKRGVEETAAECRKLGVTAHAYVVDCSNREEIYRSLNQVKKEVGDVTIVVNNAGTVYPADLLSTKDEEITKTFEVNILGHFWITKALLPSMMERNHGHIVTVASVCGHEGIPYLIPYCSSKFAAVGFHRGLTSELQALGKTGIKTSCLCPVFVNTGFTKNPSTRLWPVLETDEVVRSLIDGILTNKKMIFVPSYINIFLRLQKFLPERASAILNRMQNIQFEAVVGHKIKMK

SMILES | IC50
COc1cc(C(=O)O)ccc1NS(=O)(=O)c1cnc(-c2ccc(-c3ccc(C(F)(F)F)cc3)cc2)s1 [Example 718] | < 0.1 µM
COc1cc(C(=O)O)c(F)cc1NS(=O)(=O)c1cnc(-c2ccc(C3=CCC(C(F)(F)F)CC3)cc2)s1 (stereo not shown) [Example 719] | < 0.1 µM
COc1cc(C(=O)O)c(F)cc1NS(=O)(=O)c1cnc(-c2ccc([C@H]3CC[C@@H](C(C)(C)C)CC3)cc2)s1 [Example 720] | 0.1 to 0.5 µM
COc1cc(C(=O)O)c(F)cc1NS(=O)(=O)c1cnc(-c2ccc([C@H]3CC[C@H](C(C)(C)C)CC3)cc2)s1 [Example 721] | 0.1 to 0.5 µM
COc1cc(C(=O)O)ccc1NS(=O)(=O)c1cnc(-c2ccc(C3=CC4CCC3C4)cc2)s1 (stereo not shown) [Example 722] | 0.1 to 0.5 µM
CC[C@H]1CC[C@H](c2ccc(-c3nc(S(=O)(=O)Nc4cc(F)c(C(=O)O)cc4OC)cs3)cc2)CC1 [Example 723] | < 0.1 µM
COc1cc(C(=O)O)c(F)cc1NS(=O)(=O)c1cnc(-c2ccc([C@H]3CC[C@@H](C(F)(F)F)CC3)cc2)s1 [Example 724] | < 0.1 µM
COc1cc(C(=O)O)c(F)cc1NS(=O)(=O)c1cnc(-c2ccc([C@H]3CC[C@H](C(F)(F)F)CC3)cc2)s1 [Example 725] | < 0.1 µM
COc1cc(C(=O)O)c(F)cc1NS(=O)(=O)c1cnc(-c2ccc(C3=CC=C(F)CC3)cc2)s1 [Example 726] | 0.1 to 0.5 µM
COc1cc(C(=O)O)c(F)cc1NS(=O)(=O)c1cnc(-c2ccc(C3=CCC(F)(F)CC3)cc2)s1 [Example 727] | 0.1 to 0.5 µM
COc1cc(C(=O)O)c(F)cc1NS(=O)(=O)c1cnc(-c2ccc(C3=CCC(C)(C)CC3)cc2)s1 [Example 728] | < 0.1 µM
COc1cc(C(=O)O)c(F)cc1NS(=O)(=O)c1cnc(-c2ccc([C@H]3CC[C@@H](C(C)C)CC3)cc2)s1 [Example 729] | 0.1 to 0.5 µM
COc1cc(C(=O)O)c(F)cc1NS(=O)(=O)c1csc(-c2ccc([C@H]3CC[C@H](C(C)C)CC3)cc2)n1 [Example 730] | < 0.1 µM
COc1cc(C(=O)O)c(F)cc1NS(=O)(=O)c1csc(-c2ccc(-c3ccc(C45CC6C[C@H](C4)C[C@H](C6)C5)cc3)cc2)n1 [Example 731] | < 0.1 µM
COc1cc(C(=O)O)c(F)cc1NS(=O)(=O)c1csc(-c2ccc(C34CC5C[C@H](C3)C[C@H](C5)C4)cc2)n1 [Example 732] | 0.1 to 0.5 µM
CCC[C@H]1CC[C@H]([C@H]2CC[C@@H](c3nc(S(=O)(=O)Nc4cc(F)c(C(=O)O)cc4OC)cs3)CC2)CC1 [Example 733] | 0.1 to 0.5 µM
CCC[C@H]1CC[C@H]([C@H]2CC[C@H](c3nc(S(=O)(=O)Nc4cc(F)c(C(=O)O)cc4OC)cs3)CC2)CC1 [Example 734] | 0.1 to 0.5 µM
COc1cc(C(=O)O)c(F)cc1NS(=O)(=O)c1csc(-c2ccc(-c3ccc(C(F)(F)C(F)(F)F)cc3)cc2)n1 [Example 735] | 0.1 to 0.5 µM
COc1cc(C(=O)O)ccc1NS(=O)(=O)c1cnc(-c2ccc(C3=CCC4(CC3)CC4)cc2)s1 [Example 736] | 0.1 to 0.5 µM
COc1cc(C(=O)O)c(F)cc1NS(=O)(=O)c1csc(-c2ccc(-c3ccc(-c4ccc(C56CC7C[C@H](C5)C[C@H](C7)C6)cc4)cc3C(F)(F)F)cc2C(F)(F)F)n1 [Example 737] | 1 to 100 µM
COc1cc(C(=O)O)c(F)cc1NS(=O)(=O)c1csc(-c2ccc(-c3ccc(C45CC6C[C@H](C4)C[C@H](C6)C5)cc3)c(C(F)(F)F)c2)n1 [Example 738] | 0.1 to 0.5 µM

SMILES | IC50
COc1cc(C(=O)O)c(F)cc1NS(=O)(=O)c1csc(-c2ccc(-c3ccc(C45CC6C[C@H](C4)C[C@H](C6)C5)cc3)c(F)c2F)n1 [Example 739] | 0.1 to 0.5 µM
COc1cc(C(=O)O)c(F)cc1NS(=O)(=O)c1csc(-c2ccc(-c3ccc(C(F)(F)F)cc3)cc2)n1 [Example 740] | < 0.1 µM
COc1cc(C(=O)O)c(F)cc1NS(=O)(=O)c1csc(-c2ccc(C3=CCC(C(C)C)CC3)cc2C(F)(F)F)n1 (stereo not shown) [Example 741] | < 0.1 µM
COc1cc(C(=O)O)c(F)cc1NS(=O)(=O)c1csc(-c2ccc(-c3ccc(C4=CCC(C(C)C)CC4)cc3C(F)(F)F)cc2C(F)(F)F)n1 (stereo not shown) [Example 742] | 0.1 to 0.5 µM
COc1cc(C(=O)O)c(F)cc1NS(=O)(=O)c1csc(-c2ccc(-c3ccc(C45CC6C[C@H](C4)C[C@H](C6)C5)cc3)c(OC)c2)n1 [Example 743] | 0.1 to 0.5 µM
COc1cc(C(=O)O)c(F)cc1NS(=O)(=O)c1csc(-c2ccc(-c3ccc(C45CC6C[C@H](C4)C[C@H](C6)C5)cc3)cc2OC)n1 [Example 744] | 0.1 to 0.5 µM
COc1cc(C(=O)O)c(F)cc1NS(=O)(=O)c1csc(-c2ccc(C(F)(F)C(F)(F)F)cc2)n1 [Example 745] | 0.1 to 0.5 µM
COc1cc(C(=O)O)ccc1NS(=O)(=O)c1cnc(-c2ccc(C3CCC4(CC3)CC4)cc2)s1 [Example 746] | 0.1 to 0.5 µM
COc1cc(C(=O)O)c(F)cc1NS(=O)(=O)c1csc(-c2ccc(C3=CCC(C(C)(C)C)CC3)cc2)n1 (stereo not shown) [Example 747] | < 0.1 µM
COc1cc(C(=O)O)c(F)cc1NS(=O)(=O)c1csc(-c2ccc(C3(O)CCC(C)(C)CC3)cc2)n1 [Example 748] | < 0.1 µM
COc1cc(C(=O)O)ccc1NS(=O)(=O)c1csc(-c2ccc(F)cc2)n1 [Example 749] | 0.1 to 0.5 µM
COc1cc(C(=O)O)c(F)cc1NS(=O)(=O)c1csc(-c2ccc(-c3ccc(C45CC6C[C@H](C4)C[C@H](C6)C5)cc3)c(OC(F)(F)F)c2)n1 [Example 750] | 0.1 to 0.5 µM
COc1cc(C(=O)O)c(F)cc1NS(=O)(=O)c1csc(-c2ccc(-c3ccc(C4CCC(C(C)C)CC4)cc3C(F)(F)F)cc2C(F)(F)F)n1 (stereo not shown) [Example 753] | 0.1 to 0.5 µM
COc1cc(C(=O)O)c(F)cc1NS(=O)(=O)c1csc(-c2ccc(-c3ccc([C@H]4CC[C@H](C(C)C)CC4)cc3C(F)(F)F)cc2C(F)(F)F)n1 [Example 754] | 0.1 to 0.5 µM
CCC[C@H]1CC[C@H](c2ccc(-c3nc(S(=O)(=O)Nc4cc(F)c(C(=O)O)cc4OC)cs3)c(F)c2)CC1 [Example 755] | < 0.1 µM
COc1cc(C(=O)O)c(F)cc1NS(=O)(=O)c1csc(-c2ccc(-c3ccc(C(C)(F)F)cc3)cc2C(F)(F)F)n1 [Example 756] | < 0.1 µM
COc1cc(C(=O)O)c(F)cc1NS(=O)(=O)c1csc(-c2ccc(-c3ccc(C4CC4)cc3C(F)(F)F)cc2C(F)(F)F)n1 [Example 757] | < 0.1 µM
COc1cc(C(=O)O)c(F)cc1NS(=O)(=O)c1csc(-c2ccc(C3=CCC4(CC3)CC4)cc2)n1 [Example 758] | 0.1 to 0.5 µM
CCCCC[C@H]1CC[C@H](c2ccc(-c3nc(S(=O)(=O)Nc4cc(F)c(C(=O)O)cc4OC)cs3)c(F)c2)CC1 [Example 759] | 0.1 to 0.5 µM
COc1cc(C(=O)O)c(F)cc1NS(=O)(=O)c1csc(-c2ccc(-c3ccc(C45CC6C[C@H](C4)C[C@H](C6)C5)cc3)cc2F)n1 [Example 760] | < 0.1 µM
COc1cc(C(=O)O)c(F)cc1NS(=O)(=O)c1csc(-c2ccc([C@H]3CC[C@@H](C(C)(C)C)CC3)cc2)n1 [Example 761] | 0.1 to 0.5 µM

SMILES | IC50
COc1cc(C(=O)O)c(F)cc1NS(=O)(=O)c1csc(-c2ccc([C@H]3CC[C@H](C(C)(C)C)CC3)cc2)n1 [Example 762] | < 0.1 µM
COc1cc(C(=O)O)c(F)cc1NS(=O)(=O)c1csc(-c2ccc(OC3CCCCC3)cc2)n1 [Example 763] | 0.1 to 0.5 µM
COc1cc(C(=O)O)c(F)cc1NS(=O)(=O)c1cnc(-c2ccc(C3CCC(C)(C)CC3)cc2)s1 [Example 764] | < 0.1 µM
COc1cc(C(=O)O)c(F)cc1NS(=O)(=O)c1cnc(-c2ccc(C3=CCC(C(C)C)CC3)cc2)s1 (stereo not shown) [Example 765] | 0.1 to 0.5 µM
COc1cc(C(=O)O)c(F)cc1NS(=O)(=O)c1cnc(-c2ccc(-c3ccc(C45CC6C[C@H](C4)C[C@H](C6)C5)cc3)cc2)s1 [Example 766] | 0.1 to 0.5 µM
COc1cc(C(=O)O)c(F)cc1NS(=O)(=O)c1csc(-c2ccc(F)cc2)n1 [Example 767] | 0.1 to 0.5 µM
COc1cc(C(=O)O)c(F)cc1NS(=O)(=O)c1cnc(-c2ccc([C@H]3CC[C@H](C(C)C)CC3)cc2)s1 [Example 769] | 0.1 to 0.5 µM
COc1cc(C(=O)O)c(F)cc1NS(=O)(=O)c1cnc(-c2ccc(-c3ccc(C(F)(F)C(F)(F)F)cc3)cc2)s1 [Example 770] | < 0.1 µM
COc1cc(C(=O)O)c(F)cc1NS(=O)(=O)c1csc(-c2ccc(C3=CCC(C(C)C)CC3)c(F)c2F)n1 (stereo not shown) [Example 771] | < 0.1 µM
COc1cc(C(=O)O)c(F)cc1NS(=O)(=O)c1csc(-c2ccc([C@H]3CC[C@@H](C(C)C)CC3)c(F)c2F)n1 [Example 772] | < 0.1 µM
COc1cc(C(=O)O)c(F)cc1NS(=O)(=O)c1csc(-c2ccc([C@H]3CC[C@H](C(C)C)CC3)c(F)c2F)n1 [Example 773] | < 0.1 µM
COc1cc(C(=O)O)c(F)cc1NS(=O)(=O)c1csc(-c2ccc(C3=CCC(C(C)C)CC3)cc2)n1 (stereo not shown) [Example 774] | < 0.1 µM
COc1cc(C(=O)O)c(F)cc1NS(=O)(=O)c1csc(-c2ccc(-c3ccc(C45CC6C[C@H](C4)C[C@H](C6)C5)cc3)cc2C(F)(F)F)n1 [Example 775] | < 0.1 µM
COc1cc(C(=O)O)c(F)cc1NS(=O)(=O)c1csc(-c2ccc(C3=CCC(C(C)(C)C)CC3)cc2C(F)(F)F)n1 (stereo not shown) [Example 776] | < 0.1 µM
COc1cc(C(=O)O)c(F)cc1NS(=O)(=O)c1csc(-c2ccc(C3CCC4(CC3)CC4)cc2)n1 [Example 778] | < 0.1 µM
CCC[C@H]1CC[C@H](C2CC=C(c3nc(S(=O)(=O)Nc4cc(F)c(C(=O)O)cc4OC)cs3)CC2)CC1 (stereo partly shown) [Example 779] | 0.1 to 0.5 µM
COc1cc(C(=O)O)c(F)cc1NS(=O)(=O)c1csc(-c2ccc([C@H]3CC[C@H](C(C)(C)C)CC3)cc2C(F)(F)F)n1 [Example 780] | < 0.1 µM
COc1cc(C(=O)O)c(F)cc1NS(=O)(=O)c1csc(-c2ccc(-c3ccc(C4CCC(C(C)(C)C)CC4)cc3C(F)(F)F)cc2C(F)(F)F)n1 (stereo not shown) [Example 781] | 0.1 to 0.5 µM
COc1cc(C(=O)O)c(F)cc1NS(=O)(=O)c1csc(-c2ccc([C@H]3CC[C@@H](C(C)(C)C)CC3)cc2C(F)(F)F)n1 [Example 782] | 0.1 to 0.5 µM
